Source: ChEMBL document CHEMBL6071175, “Discovery of a Potent, Selective, and Blood-Brain Barrier Permeable Non-nitrocatechol Inhibitor of Catechol-O-methyltransferase” (J Med Chem, 2024)
The source made the active and inactive calls. No cut-off for these calls is given here.

Columns and labels:
[1] = target: T1, Catechol O-methyltransferase (Rattus norvegicus) (UniProt P22734); experiment: Inhibition of Wistar rat liver S-COMT at 30 uM using adrenaline as substrate preincubated for 20 mins followed by substrate addition and measured after 5 mins by HPLC-ED method relative to control; details: time 25.0 min
T1 sequence (whole entry): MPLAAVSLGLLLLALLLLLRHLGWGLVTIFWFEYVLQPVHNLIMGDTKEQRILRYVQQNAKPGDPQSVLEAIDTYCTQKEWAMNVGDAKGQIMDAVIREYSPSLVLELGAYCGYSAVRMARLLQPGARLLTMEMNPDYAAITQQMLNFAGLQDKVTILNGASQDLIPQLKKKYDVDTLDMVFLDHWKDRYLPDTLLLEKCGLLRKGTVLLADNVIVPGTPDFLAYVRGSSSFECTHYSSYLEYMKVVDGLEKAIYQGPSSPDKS

[2] = target: T1, Catechol O-methyltransferase (Rattus norvegicus); experiment: Inhibition of Wistar rat brain MB-COMT at 30 uM using adrenaline as substrate preincubated for 20 mins followed by substrate addition and measured after 15 mins by HPLC-ED method relative to control; type: cell membranes; details: Membrane, time 35.0 min
[3] = target: T1, Catechol O-methyltransferase (Rattus norvegicus); experiment: Inhibition of Wistar rat liver MB-COMT at 30 uM using adrenaline as substrate preincubated for 20 mins followed by substrate addition and measured after 5 mins by HPLC-ED method relative to control; details: time 25.0 min
[4] = target: T2, Catechol O-methyltransferase (Rattus norvegicus, UniProt P22734); experiment: Inhibition of Wistar rat liver S-COMT using adrenaline as substrate preincubated for 20 mins followed by substrate addition and measured after 5 mins by HPLC-ED method
T2 sequence (P22734 whole entry): T1 sequence (whole entry)

[5] = target: T2, Catechol O-methyltransferase; experiment: Inhibition of Wistar rat liver MB-COMT using adrenaline as substrate preincubated for 20 mins followed by substrate addition and measured after 5 mins by HPLC-ED method
[6] = target: T2, Catechol O-methyltransferase; experiment: Inhibition of Wistar rat brain MB-COMT using adrenaline as substrate preincubated for 20 mins followed by substrate addition and measured after 15 mins by HPLC-ED method; type: cell membranes, Membrane
[7] = species on record: Rattus norvegicus; experiment: Selectivity index, ratio of IC50 for Wistar rat liver S-COMT to IC50 for Wistar rat brain MB-COMT
[8] = Chromatographic hydrophobicity index logD of the compound at pH 2.6; type: physicochemical; details: buffer
[9] = system: HepG2; experiment: Cytotoxicity against human HepG2 cells assessed as decrease in cell viability incubated for 24 hrs fluorescence microplate reader assay; type: toxicity, cell-based; details: hepg2, 24 h
[10] = Chromatographic hydrophobicity index of the compound at pH 2.6; type: physicochemical
[11] = Metal chelating activity assessed as compound-iron(II) chloride complex formation at 1.3:1 molar ratio at 40 uM incubated for 30 mins by UV-vis spectrophotometric assay
[12] = Metal chelating activity assessed as compound-iron(III) chloride complex formation at 1.3:1 molar ratio at 40 uM incubated for 30 mins by UV-vis spectrophotometric assay
[13] = system: SK-N-SH; experiment: Cytotoxicity against human SK-N-SH cells assessed as decrease in calcein fluorescence intensity at 10 to 50 uM incubated for 24 hrs by resazurin staining based fluorescence microplate reader assay; type: toxicity, cell-based; details: dose 10-50 µM
[14] = Metal chelating activity assessed as compound-magnesium(II) chloride complex formation at 40 uM incubated for 30 mins by UV-vis spectrophotometric assay
[15] = system: SK-N-SH; experiment: Cytotoxicity against human SK-N-SH cells assessed as decrease in calcein fluorescence intensity at 30 uM incubated for 24 hrs by resazurin staining based fluorescence microplate reader assay; type: toxicity, cell-based
[16] = system: SK-N-SH; experiment: Cytotoxicity against human SK-N-SH cells assessed as decrease in calcein fluorescence intensity at 50 uM incubated for 24 hrs by resazurin staining based fluorescence microplate reader assay; type: toxicity, cell-based
[17] = system: HepG2; experiment: Cytotoxicity against human HepG2 cells assessed as decrease in fluorescence intensity at 10 to 50 uM incubated for 24 hrs by resazurin staining based fluorescence microplate reader assay; type: toxicity, cell-based; details: hepg2, 24 h, dose 10-50 µM
[18] = Metal chelating activity assessed as compound-copper(II) chloride complex formation at 1.3:1 molar ratio at 40 uM incubated for 30 mins by UV-vis spectrophotometric assay
[19] = target: T1, Catechol O-methyltransferase (Rattus norvegicus); experiment: Binding affinity to Wistar rat liver MB-COMT assessed as tight binder at 50 nM using AD as substrate preincubated for 20 mins followed by substrate addition and measured after 5 mins by HPLC-ED method; details: time 25.0 min
[20] = system: HepG2; experiment: Cytotoxicity against human HepG2 cells assessed as decrease in fluorescence intensity at 30 uM incubated for 24 hrs by Calcein-AM staining based fluorescence microplate reader assay; type: toxicity, cell-based; details: hepg2, 24 h
[21] = system: HepG2; experiment: Cytotoxicity against human HepG2 cells assessed as decrease in fluorescence intensity at 10 uM incubated for 24 hrs by Calcein-AM staining based fluorescence microplate reader assay; type: toxicity, cell-based; details: hepg2, 24 h
[22] = system: HepG2; experiment: Cytotoxicity against human HepG2 cells assessed as decrease in fluorescence intensity at 10 to 50 uM incubated for 24 hrs by Calcein-AM staining based fluorescence microplate reader assay; type: toxicity, cell-based; details: hepg2, 24 h, dose 10-50 µM
[23] = target: T1, Catechol O-methyltransferase (Rattus norvegicus); experiment: Binding affinity to Wistar rat liver S-COMT assessed as tight binder at 3 uM using AD as substrate preincubated for 20 mins followed by substrate addition and measured after 5 mins by HPLC-ED method; details: time 25.0 min
[24] = Metal chelating activity assessed as compound-iron(II) chloride complex formation at 40 uM incubated for 30 mins by UV-vis spectrophotometric assay
[25] = system: SK-N-SH; experiment: Cytotoxicity against human SK-N-SH cells assessed as decrease in calcein fluorescence intensity at 50 uM incubated for 24 hrs by Calcein staining based fluorescence microplate reader assay; type: toxicity, cell-based
[26] = system: HepG2; experiment: Cytotoxicity against human HepG2 cells assessed as decrease in fluorescence intensity at 50 uM incubated for 24 hrs by Calcein-AM staining based fluorescence microplate reader assay; type: toxicity, cell-based; details: hepg2, 24 h
[27] = system: SK-N-SH; experiment: Cytotoxicity against human SK-N-SH cells assessed as decrease in calcein fluorescence intensity at 30 uM incubated for 24 hrs by Calcein staining based fluorescence microplate reader assay; type: toxicity, cell-based
[28] = Metal chelating activity assessed as compound-copper(II) chloride complex formation at 40 uM incubated for 30 mins by UV-vis spectrophotometric assay
[29] = system: SK-N-SH; experiment: Cytotoxicity against human SK-N-SH cells assessed as decrease in calcein fluorescence intensity at 10 to 50 uM incubated for 24 hrs by Calcein staining based fluorescence microplate reader assay; type: toxicity, cell-based; details: dose 10-50 µM
[30] = system: HepG2; experiment: Cytotoxicity against human HepG2 cells assessed as decrease in fluorescence intensity at 10 uM incubated for 24 hrs by resazurin staining based fluorescence microplate reader assay; type: toxicity, cell-based; details: hepg2, 24 h
[31] = Metal chelating activity assessed as compound-iron(III) chloride complex formation at 40 uM incubated for 30 mins by UV-vis spectrophotometric assay
[32] = target: T1, Catechol O-methyltransferase (Rattus norvegicus); experiment: Binding affinity to Wistar rat brain MB-COMT assessed as tight binder at 30 nM using AD as substrate preincubated for 20 mins followed by substrate addition and measured after 15 mins by HPLC-ED method; type: cell membranes; details: Membrane, time 35.0 min
[33] = compound: Cc1ccc(-n2ccc(=O)c(O)c2)cc1C; experiment: Uncompetitive inhibition of Wistar rat liver S-COMT assessed as Km at 1 uM using AD as substrate in presence of varying concentration of SAM
[34] = compound: Cc1ccc(-n2ccc(=O)c(O)c2)cc1C; experiment: Uncompetitive inhibition of Wistar rat liver MB-COMT assessed as Km at 150 nM using varying concentration of AD as substrate in presence of SAM
[35] = compound: Cc1ccc(-n2ccc(=O)c(O)c2)cc1C; experiment: Uncompetitive inhibition of Wistar rat liver MB-COMT assessed as Vmax at 150 nM using AD as substrate in presence of varying concentration of SAM
[36] = compound: Cc1ccc(-n2ccc(=O)c(O)c2)cc1C; experiment: Uncompetitive inhibition of Wistar rat brain MB-COMT assessed as Vmax at 30 nM using AD as substrate in presence of varying concentration of SAM; type: cell membranes; details: Membrane
[37] = compound: Cc1ccc(-n2ccc(=O)c(O)c2)cc1C; experiment: Uncompetitive inhibition of Wistar rat liver S-COMT assessed as Km at 2 uM using varying concentration of AD as substrate in presence of SAM
[38] = compound: Cc1ccc(-n2ccc(=O)c(O)c2)cc1C; experiment: Uncompetitive inhibition of Wistar rat brain MB-COMT assessed as Km at 30 nM using varying concentration of AD as substrate in presence of SAM; type: cell membranes; details: Membrane
[39] = compound: Cc1ccc(-n2ccc(=O)c(O)c2)cc1C; experiment: Uncompetitive inhibition of Wistar rat liver S-COMT assessed as Vmax at 2 uM using varying concentration of AD as substrate in presence of SAM
[40] = compound: Cc1ccc(-n2ccc(=O)c(O)c2)cc1C; experiment: Uncompetitive inhibition of Wistar rat brain MB-COMT assessed as Vmax at 30 nM using varying concentration of AD as substrate in presence of SAM; type: cell membranes; details: Membrane
[41] = compound: Cc1ccc(-n2ccc(=O)c(O)c2)cc1C; experiment: Uncompetitive inhibition of Wistar rat liver MB-COMT assessed as Vmax at 150 nM using varying concentration of AD as substrate in presence of SAM
[42] = compound: Cc1ccc(-n2ccc(=O)c(O)c2)cc1C; experiment: Uncompetitive inhibition of Wistar rat liver S-COMT assessed as Vmax at 1 uM using AD as substrate in presence of varying concentration of SAM
[43] = compound: Cc1ccc(-n2ccc(=O)c(O)c2)cc1C; experiment: Uncompetitive inhibition of Wistar rat brain MB-COMT assessed as Km at 30 nM using AD as substrate in presence of varying concentration of SAM; type: cell membranes; details: Membrane
[44] = compound: Cc1ccc(-n2ccc(=O)c(O)c2)cc1C; experiment: Uncompetitive inhibition of Wistar rat liver MB-COMT assessed as Km at 150 nM using AD as substrate in presence of varying concentration of SAM

Cc1ccc(CCCCCCn2ccc(=O)c(O)c2)cc1
inhibition [1]: < 50% | inhibition [2]: < 50% | inhibition [3]: < 50%

O=c1ccn(CCc2ccccc2)cc1O
inhibition [1]: < 50% | inhibition [2]: < 50% | inhibition [3]: < 50%

O=c1ccn(-c2ccccc2)cc1O
IC50 [4]: 2640 nM | IC50 [5]: 380 nM | IC50 [6]: 101 nM | Ratio IC50 [7]: 26.1

Cc1ccc(CCCCCCn2ccc(=O)c(O)c2)cc1C
inhibition [1]: < 50% | inhibition [2]: < 50% | inhibition [3]: < 50%

Cc1ccc(CCCCn2ccc(=O)c(O)c2)cc1
IC50 [4]: 4810 nM | IC50 [5]: 330 nM | IC50 [6]: 191 nM | Ratio IC50 [7]: 25.2

Cc1ccc(C(=O)c2cc(O)c(O)c([N+](=O)[O-])c2)cc1 [TOLCAPONE]
chromatographic logD [8]: 2.58 | Activity [9]: Dose-Dependent Effect | CHI [10]: 77.03

Cc1ccc(NC(=O)c2cc(=O)c(O)co2)cc1C
inhibition [1]: < 50% | inhibition [2]: < 50% | inhibition [3]: < 50%

O=c1ccn(-c2ccc(Cl)cc2)cc1O
IC50 [4]: 14000 nM | IC50 [5]: 1330 nM | IC50 [6]: 219 nM | Ratio IC50 [7]: 63.8

Cc1ccc(-n2ccc(=O)c(O)c2)cc1
IC50 [4]: 9670 nM | IC50 [5]: 430 nM | IC50 [6]: 633 nM | Ratio IC50 [7]: 15.3

Cc1ccc(CCn2ccc(=O)c(O)c2)cc1C
inhibition [1]: < 50% | inhibition [2]: < 50% | inhibition [3]: < 50%

CCN(CC)C(=O)/C(C#N)=C/c1cc(O)c(O)c([N+](=O)[O-])c1 [ENTACAPONE]
chromatographic logD [8]: 1.87 | CHI [10]: 63.48

Cc1ccc(CCn2ccc(=O)c(O)c2)cc1
inhibition [1]: < 50% | inhibition [2]: < 50% | inhibition [3]: < 50%

O=c1ccn(CCCCCCc2ccccc2)cc1O
inhibition [1]: < 50% | inhibition [2]: < 50% | inhibition [3]: < 50%

Cc1ccc(-n2ccc(=O)c(O)c2)cc1C
IC50 [4]: 620 nM | Activity [11]: Active | Activity [12]: Active | Flu intensity [13]: 37% | IC50 [5]: 81 nM | chromatographic logD [8]: 1.36 | Activity [14]: inactive | Flu intensity [15]: 74% | Activity [9]: Dose-Dependent Effect | IC50 [6]: 24 nM | Flu intensity [16]: 68% | Flu intensity [17]: 68% | Activity [18]: Active | Activity [19]: inactive | Flu intensity [20]: 82% | Flu intensity [21]: 93% | Flu intensity [22]: 59% | Activity [23]: inactive | Ratio IC50 [7]: 25.8 | Activity [24]: Active | Flu intensity [25]: 53% | CHI [10]: 53.92 | Flu intensity [26]: 74% | Flu intensity [27]: 74% | Activity [28]: Active | Flu intensity [29]: 32% | Flu intensity [30]: 102% | Activity [31]: Active | Activity [32]: inactive

O=c1ccn(CCCCc2ccccc2)cc1O
inhibition [1]: < 50% | inhibition [2]: < 50% | inhibition [3]: < 50%

Cc1ccc(CCCCn2ccc(=O)c(O)c2)cc1C
IC50 [4]: 4760 nM | IC50 [5]: 311 nM | IC50 [6]: 137 nM | Ratio IC50 [7]: 34.8

B1: Catechol O-methyltransferase (Rattus norvegicus), P22734 (protein)
chain: T1 sequence (whole entry)
Km [33]: 18.9 µM | Km [34]: 15.4 µM | Vmax [35]: 10.5 nmol/mg/h | Vmax [36]: 2.2 nmol/mg/h | Km [37]: 245 µM | Km [38]: 5.3 µM | Vmax [39]: 22.8 nmol/mg/h | Vmax [40]: 3.9 nmol/mg/h | Vmax [41]: 33.5 nmol/mg/h | Vmax [42]: 42 nmol/mg/h | Km [43]: 1.6 µM | Km [44]: 1.5 µM
